Test results published in patent US6921530B1, “Low dose IL-2 for potentiation of immunity” (Cornell Research Foundation, Inc., priority 1999, dated 2005).
Several values for one entry are separate records, joined by “and”; a condition that tells them apart may be missing. Identical values can stand only once.

Assays:
[1] = system: HCV; conditions: 1-2 MIU s.c. daily; cited from earlier work
[2] = Tolerability of daily IL-2 doses in earlier studies of the applicant; type: in vivo
Experimental: a) IL-2: The initial dose of IL-2 used in this study is based on our studies in HIV infection. Individuals with HIV were able to tolerate rIL-2 at 1.2×10^6 IU/m^2/day. […] Peak plasma levels are measured at two hours after initial IL-2 injection. Dosage adjustments of IL-2 are made under the following circumstances:
(1) IL-2 Dosage reduction: If a subject experiences WHO grade I systemic toxicity, and is unable to tolerate the daily dose of rIL-2 at 1.2×10^6 IU/m^2/day, the dose is reduced to 0.9×10^6 IU/m^2/day. In the event that toxicity continues, the dose is decreased to 0.75 IU/m^2/day, which is halfway between the previous dose and the dose we have previously determined to be ineffective (0.6 IU/m^2/d).
This dose is midway between the starting dose and the dose found to be toxic in 100% of patients (2.4×10^6 IU /m^2/d). In the event that toxicity occurs, the dose is adjusted to 1.4×10^6 IU 1m^2/day, and if there is still toxicity, the dose will be returned to 1.2×10^6 IU /m^2/day.

[3] = system: HIV p24-reactive T cells and NK cells; experiment: Activation markers after 18 h whole blood activation with HIV p24 (flow cytometry); type: cell-based, human
Source text: FIG. 4 Expression of activation markers of CD4+ T cells and CD4− T cells after stimulation with HIV p24. Vertical axis=CD4, upper row horizontal axis=CD69, middle row=CD25, lower row=IFN-γ. A=subject #1, B=subject #2, C=subject #3, and D=subject #8. Numbers in right quadrants represent the % of CD4+ (upper) and CD4− (lower) T cells that reacted with the monoclonal antibody directed against the respective activation marker. The numbers in the column on the right represent the mean±SEM of the percentage positive cells from all 4 subjects. The values for control cultures, which received monoclonal antibodies reactive with accessory molecules alone (CD28 & CD49d) without HIV p24, were subtracted from the plots and percentages shown.
To identify activated cells, whole blood (1 ml) was cultured for 18 hours with the co-stimulatory antibodies anti-CD28 and anti-CD49d, and HIV p24 antigen (1 μg/ml, Research Diagnostics, Inc., Flanders N.J.) and cytomegalovirus antigen (1 μg/ml, Advanced Biotechnologies, Columbia, Md.). At the end of the incubaton the erythrocytes were lysed using FACSLysing Solution™ (9 ml). The cells were then either frozen at −70° C. in 2 ml RPMI 1640 medum with 10% Dimethyl Sulfoxide (Sigma, St. Louis, Mo.) or permeabilized with FACSPerm Solution™ (2 ml). Thereafter the cells were reacted with anti-CD3-PerCP, anti-CD4-PE, anti-CD8-PE, anti-CD56-PE, anti-CD69-FITC, anti-CD25-FITC, and anti-IFN-γ-FITC. All antibodies were from Becton Dickinson.
FIG. 5 Expression of interferon γ (IFN-γ) by CD-3+ and CD3− lymphocytes. A. Cells examined for size and granularity (left panel), CD3 expression (middle panel), and CD8 expression (right panel). B. Expression of IFN-γ and CD56 by CD3+ cells (gate R2), according to CD8− cells (gate R4, left panels), CD8 dim (gate R5, middle panels), and CD8+ (gate R6, right panels). Control cultures stimulated only with accessory antibodies (upper panels, HIV p24-stimulated cultures (lower panels). C. Expression of IFN-γ and CD56 by CD3− cells (gate R3), according to CD8− cells (gate R4, left panels), CD8dim (gate 5, middle panels) and CD8+ (gate R6, right panels). Control cultures stimulated only with accessory antibodies (upper panes, antiCD28, CD49d), HIV p-24-stimulated cultures (lower panels). Numbers in upper quadrants represent the percentages of CD56− and CD56+ cells that also reacted with anti-IFN-γ. To examine the activation of T cells and NK cells together, the cells were reacted with anti-CD3-PerCP, anti-CD8-PE, and anti-CD56-FITC, together with anti-IFN-γ-APC, all from Becton Dickinson.
To examine the HIV specific reactivity of CD4+ T cells, we performed an 18-hour activation of whole blood with HIV p24 followed by a 4-hour incubation with Brefeldin A to inhibit secretion. Subsequently, the cells were examined by flow cytometry after reaction with fluorochrome-conjugated monoclonal antibodies. Shown in FIG. 4 are the results from experiments performed with blood from the subjects who underwent a second treatment interruption when they had experienced the second CD8+ T lymphocytosis and had reached a stable concentration of plasma virus. Only CD3+ T cells were examined. […] In addition, subjects #1, 2 and 8 also expressed IFN-γ (mean 2.0%±1.2% SEM), while subject #3 had reactivity just above the limits of detection (0.2%). Also depicted in FIG. 4 are the results of the activation markers expressed by CD4− T cells, which are all CD8+, as determined by direct analysis for CD8 expression. There were also CD4− T cells stimulated to express CD69 (mean 3.2%±2.1% SEM) and CD25 (mean 1.9%±0.9% SEM). Moreover, CD4− T cells from subjects #1 and 2 also expressed IFN-γ, whereas the cells from subject 3 and 8 were at the level of detection (0.1%).
It was unexpected to find CD3+, CD4− cells capable of expressing surface markers of activation, and as well, producing detectable intracellular IFN-γ after HIV p24 stimulation. […]

[4] = 4 subjects after second treatment interruption, mean ± SEM
[5] = subject #1, HIV antigen activated

In the case of Interleukin-2 [IL-2], the “subjects showing a decrease in ALT” value [1] is given as 70%, the “patients in whom the dose was toxic” value ([2]; 2.4×10^6 IU /m^2/d) is given as 100% and the “dose previously determined to be ineffective” value ([2]; in vivo) is given as 0.6 IU/m^2/d. For the same substance, the tolerated daily dose ([2]; individuals with HIV) was 1.2×10^6 IU/m^2/day, the “CD4+ T cells stimulated by HIV p24 to express CD25” value [3, 4] was 15.5%±2.1% and 15.5% and the “CD4+ T cells stimulated by HIV p24 to express CD69” value [3, 4] was 4.3%±0.45. The “CD4− T cells stimulated by HIV p24 to express CD25” value [3, 4] was 1.9%±0.9%, the “CD4− T cells stimulated by HIV p24 to express CD69” value [3, 4] was 3.2%±2.1% and the “CD4− T cells expressing IFN-γ” value ([3]; subject 3 and 8, at the level of detection) was 0.1%. The “CD3-, CD8-dim cells that are CD56+ producing IFN-γ” value [3, 5] was 28%, the “CD3−, CD8− cells that express CD56 producing IFN-γ” value [3, 5] was 33% and the “CD4+ T cells stimulated by HIV p24 to express IFN-γ” value ([3]; subject #3, just above the limits of detection) was 0.2%. The “CD4+ T cells stimulated by HIV p24 to express IFN-γ” value ([3]; subjects #1, 2 and 8, mean ± SEM) was 2.0%±1.2%.
